Measured values from PubChem BioAssay (NCI).
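Dose response: 5 concentrations. Exposure: 48 h. Format: 96-well plates. Endpoint: linear interpolation; highest concentration if not reached. TGI: total growth inhibition.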

Key:
Test in all cases: inhibition of tumour cell growth, NCI panel, 48 h
[1] = tested on: 786-0 renal
[2] = tested on: COLO 205 colon
[3] = tested on: HCC-2998 colon
[4] = tested on: HCT-116 colon
[5] = tested on: OVCAR-5 ovarian
[6] = tested on: SF-268 CNS
[7] = tested on: SF-295 CNS
[8] = tested on: SK-MEL-28 melanoma
[9] = tested on: SK-OV-3 ovarian
[10] = tested on: SNB-75 CNS
[11] = tested on: UACC-257 melanoma
[12] = tested on: SN12C renal
[13] = tested on: SR leukemia
[14] = tested on: DU-145 prostate

O=C1NC(=O)C(C(=O)C(=O)Nc2cc(Cl)ccc2Cl)C(=O)N1
TGI [1]: > 100 µM | TGI [2]: > 100 µM | TGI [3]: > 100 µM | TGI [4]: > 100 µM | TGI [5]: > 100 µM | TGI [6]: > 100 µM | TGI [7]: > 100 µM | TGI [8]: > 100 µM | TGI [9]: > 100 µM | TGI [10]: > 100 µM | TGI [11]: > 100 µM

O=[N+]([O-])c1ccc(CSc2nn(Cc3ccc([N+](=O)[O-])cc3)cc3ncnc2-3)cc1
TGI [1]: > 100 µM | TGI [2]: > 100 µM | TGI [3]: > 100 µM | TGI [4]: > 100 µM | TGI [5]: > 100 µM | TGI [7]: > 100 µM | TGI [8]: 84.5 µM | TGI [9]: > 100 µM | TGI [12]: > 100 µM | TGI [10]: > 100 µM | TGI [11]: > 100 µM

CN1C(=O)c2ccccc2C(O)(c2ccccc2)C1(O)c1ccccc1 (centres undefined)
TGI [1]: > 100 µM | TGI [2]: > 100 µM | TGI [3]: > 100 µM | TGI [4]: > 100 µM | TGI [5]: > 100 µM | TGI [6]: > 100 µM | TGI [7]: > 100 µM | TGI [8]: > 100 µM | TGI [9]: > 100 µM | TGI [12]: > 100 µM | TGI [10]: > 100 µM | TGI [13]: > 100 µM | TGI [11]: > 100 µM

CC(=O)Nc1ccc(-c2nnc(SCC(=O)Nc3cccc(C)c3)o2)cc1
TGI [1]: 26.4 µM | TGI [2]: 28 µM | TGI [4]: 24.1 µM | TGI [5]: 26.7 µM | TGI [6]: > 100 µM | TGI [7]: 22.9 µM | TGI [8]: 28.6 µM | TGI [9]: 81.5 µM | TGI [12]: 28.5 µM | TGI [10]: 45.8 µM | TGI [13]: > 100 µM | TGI [11]: 24.9 µM

COc1ccc(-c2nc(-c3ccc(OC)cc3)n(-c3ccccc3)n2)cc1
TGI [1]: > 100 µM | TGI [2]: > 100 µM | TGI [14]: > 100 µM | TGI [4]: > 100 µM | TGI [5]: > 100 µM | TGI [6]: > 100 µM | TGI [7]: > 100 µM | TGI [8]: > 100 µM | TGI [9]: > 100 µM | TGI [12]: > 100 µM | TGI [10]: > 100 µM | TGI [11]: > 100 µM

CC(C)OP(=O)(OC(C)C)C(=NCCO)NNc1ccc([N+](=O)[O-])cc1
TGI [1]: > 100 µM | TGI [2]: > 100 µM | TGI [3]: > 100 µM | TGI [4]: > 100 µM | TGI [5]: > 100 µM | TGI [6]: > 100 µM | TGI [8]: > 100 µM | TGI [12]: > 100 µM | TGI [10]: > 100 µM | TGI [13]: > 100 µM | TGI [11]: > 100 µM

Cc1ccc2nc(N)[nH]c(=O)c2c1Sc1ccncc1
TGI [1]: > 100 µM | TGI [2]: > 100 µM | TGI [3]: > 100 µM | TGI [4]: > 100 µM | TGI [5]: > 100 µM | TGI [6]: > 100 µM | TGI [7]: > 100 µM | TGI [8]: > 100 µM | TGI [9]: > 100 µM | TGI [12]: > 100 µM | TGI [10]: > 100 µM | TGI [13]: > 100 µM | TGI [11]: > 100 µM

O=c1oc2cc(O)ccc2c2[nH]c3cc(O)ccc3c12
TGI [1]: > 100 µM | TGI [2]: 74.9 µM | TGI [3]: 57 µM | TGI [4]: 31.5 µM | TGI [6]: 64.8 µM | TGI [7]: > 100 µM | TGI [8]: > 100 µM | TGI [9]: 63.1 µM | TGI [12]: > 100 µM | TGI [10]: 46.2 µM | TGI [13]: > 100 µM | TGI [11]: > 100 µM

C/C=C1\CC(C(=O)OCC)CCCCCCC1=O (centres undefined)
TGI [1]: > 100 µM | TGI [2]: > 100 µM | TGI [14]: > 100 µM | TGI [4]: > 100 µM | TGI [5]: > 100 µM | TGI [6]: > 100 µM | TGI [7]: > 100 µM | TGI [8]: > 100 µM | TGI [9]: > 100 µM | TGI [12]: > 100 µM | TGI [10]: > 100 µM | TGI [11]: > 100 µM

C[N+]1=C(c2cccnc2/C=N/O)OCC1(C)C
TGI [1]: > 100 µM | TGI [2]: > 100 µM | TGI [3]: > 100 µM | TGI [4]: > 100 µM | TGI [5]: > 100 µM | TGI [6]: > 100 µM | TGI [7]: > 100 µM | TGI [8]: > 100 µM | TGI [9]: > 100 µM | TGI [12]: > 100 µM | TGI [10]: > 100 µM | TGI [13]: > 100 µM | TGI [11]: > 100 µM

CCO/C(O)=C(/C(=N)N1CCOCC1)C(=O)Nc1cccc(C(F)(F)F)c1
TGI [1]: > 100 µM | TGI [2]: > 100 µM | TGI [14]: > 100 µM | TGI [3]: > 100 µM | TGI [4]: > 100 µM | TGI [5]: > 100 µM | TGI [6]: > 100 µM | TGI [7]: > 100 µM | TGI [8]: > 100 µM | TGI [9]: > 100 µM | TGI [12]: > 100 µM | TGI [10]: > 100 µM | TGI [11]: > 100 µM

CC(=O)NNc1nc(C)c(C(=O)NNC(=O)C(=O)Nc2ccc(Cl)c([N+](=O)[O-])c2)s1
TGI [1]: > 100 µM | TGI [2]: > 100 µM | TGI [3]: > 100 µM | TGI [4]: > 100 µM | TGI [5]: > 100 µM | TGI [6]: > 100 µM | TGI [7]: > 100 µM | TGI [8]: > 100 µM | TGI [9]: > 100 µM | TGI [12]: > 100 µM | TGI [13]: > 100 µM | TGI [11]: > 100 µM

CCOC(=O)COc1cc(-c2ccccc2F)nc2cc3c(cc12)OCO3
TGI [1]: > 100 µM | TGI [2]: > 100 µM | TGI [14]: > 100 µM | TGI [3]: > 100 µM | TGI [4]: > 100 µM | TGI [5]: > 100 µM | TGI [6]: > 100 µM | TGI [7]: > 100 µM | TGI [8]: > 100 µM | TGI [9]: > 100 µM | TGI [12]: > 100 µM | TGI [10]: > 100 µM | TGI [11]: > 100 µM

[N-]=[N+]=CC(=O)C1(C(=O)C=[N+]=[N-])CC1
TGI [1]: > 100 µM | TGI [2]: > 100 µM | TGI [3]: > 100 µM | TGI [4]: > 100 µM | TGI [5]: > 100 µM | TGI [6]: > 100 µM | TGI [7]: > 100 µM | TGI [8]: > 100 µM | TGI [9]: > 100 µM | TGI [12]: > 100 µM | TGI [10]: > 100 µM | TGI [13]: > 100 µM | TGI [11]: > 100 µM

Cc1ccc(Nc2c3c(c(C#N)c4nc5ccccc5n24)CCCC3)cc1
TGI [1]: > 100 µM | TGI [2]: 50.6 µM | TGI [14]: > 100 µM | TGI [3]: 94.9 µM | TGI [4]: 36.8 µM | TGI [5]: 95 µM | TGI [6]: > 100 µM | TGI [7]: 44.1 µM | TGI [8]: 55.6 µM | TGI [9]: > 100 µM | TGI [12]: 31.7 µM | TGI [11]: 55 µM

NCCOc1ccc(/C(=C(/Cl)c2ccccc2)c2ccccc2)cc1
TGI [1]: 20.7 µM | TGI [2]: 3.59 µM | TGI [3]: 14.8 µM | TGI [4]: 20.2 µM | TGI [5]: 30.8 µM | TGI [6]: 29.8 µM | TGI [7]: 28.9 µM | TGI [8]: 18.6 µM | TGI [9]: 31.7 µM | TGI [12]: 24 µM | TGI [10]: 24.1 µM | TGI [13]: 12.1 µM | TGI [11]: 24.8 µM

CCOC(=O)/C=C/n1c2ccccc2c(=O)c2cc(OC)ccc21
TGI [1]: > 100 µM | TGI [2]: > 100 µM | TGI [3]: > 100 µM | TGI [4]: > 100 µM | TGI [5]: > 100 µM | TGI [6]: > 100 µM | TGI [7]: > 100 µM | TGI [8]: > 100 µM | TGI [9]: > 100 µM | TGI [12]: > 100 µM | TGI [10]: > 100 µM | TGI [13]: > 100 µM | TGI [11]: > 100 µM
